Measurements taken from article PMC12687421, “Characterisation of an allosteric site in PLCγ enzymes and implications for development of their specific inhibitors” (Biochemical Journal, 2025).

Target: T1, hPLCγ1 (Homo sapiens, UniProt P19174, I813T)
T1 construct: specific activities of PLCγ1^wt and PLCγ2^wt full-length proteins; made in house; host or cells: Escherichia coli T7 Express lysY/Iq
T1 sequence (P19174 1-1291 isoform P19174-2 I813T): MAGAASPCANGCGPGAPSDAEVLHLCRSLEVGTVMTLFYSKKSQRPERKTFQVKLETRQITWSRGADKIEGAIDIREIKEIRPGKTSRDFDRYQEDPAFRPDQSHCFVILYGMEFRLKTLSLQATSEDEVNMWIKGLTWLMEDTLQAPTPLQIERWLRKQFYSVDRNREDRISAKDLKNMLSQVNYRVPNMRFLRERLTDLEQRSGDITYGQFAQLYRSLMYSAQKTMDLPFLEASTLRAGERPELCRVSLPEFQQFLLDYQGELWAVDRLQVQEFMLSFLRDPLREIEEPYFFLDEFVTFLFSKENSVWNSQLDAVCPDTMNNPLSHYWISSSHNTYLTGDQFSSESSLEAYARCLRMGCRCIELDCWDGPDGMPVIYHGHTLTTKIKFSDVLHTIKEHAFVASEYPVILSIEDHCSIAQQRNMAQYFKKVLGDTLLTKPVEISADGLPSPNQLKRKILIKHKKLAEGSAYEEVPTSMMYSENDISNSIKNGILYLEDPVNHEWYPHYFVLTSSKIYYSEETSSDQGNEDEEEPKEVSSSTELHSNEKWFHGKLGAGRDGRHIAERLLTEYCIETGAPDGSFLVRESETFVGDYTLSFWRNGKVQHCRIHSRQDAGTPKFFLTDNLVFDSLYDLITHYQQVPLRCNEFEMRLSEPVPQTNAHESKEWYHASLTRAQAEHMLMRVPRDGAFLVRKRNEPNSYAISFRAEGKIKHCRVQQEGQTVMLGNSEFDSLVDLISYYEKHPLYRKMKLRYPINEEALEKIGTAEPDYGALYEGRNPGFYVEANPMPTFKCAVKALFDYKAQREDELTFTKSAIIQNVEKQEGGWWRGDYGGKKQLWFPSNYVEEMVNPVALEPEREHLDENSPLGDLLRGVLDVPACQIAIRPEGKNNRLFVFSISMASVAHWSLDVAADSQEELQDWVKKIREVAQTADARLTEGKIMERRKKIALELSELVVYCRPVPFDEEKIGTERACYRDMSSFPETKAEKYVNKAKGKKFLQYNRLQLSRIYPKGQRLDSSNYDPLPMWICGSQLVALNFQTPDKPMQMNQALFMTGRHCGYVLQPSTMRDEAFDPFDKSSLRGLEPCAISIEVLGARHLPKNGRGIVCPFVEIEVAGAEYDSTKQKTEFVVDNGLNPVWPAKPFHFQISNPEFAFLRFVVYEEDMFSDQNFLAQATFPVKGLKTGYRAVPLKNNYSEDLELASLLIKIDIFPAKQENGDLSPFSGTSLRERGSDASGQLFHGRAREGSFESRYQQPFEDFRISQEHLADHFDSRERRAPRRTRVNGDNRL
Assay: Hydrogen deuterium exchange mass spectrometry (HDX-MS), apo vs 10 µM ADP
Assay type: binding
Method: HDX reactions comparing apo hPLCγ1 to hPLCγ1 incubated with ADP were carried out in a 15 µl reaction volume containing 10 pmol of hPLCγ1 (0.67 µM) and 10 µM of ADP and 1.67% DMSO. The exchange reactions were initiated by the addition of 10.0 µl of D2O buffer (25 mM HEPES pH 7.5, 150 mM NaCl, 2 mM TCEP 92.25% D2O (V/V)) to 5.0 µl of protein (final D2O concentration of 61.5%). Reactions proceeded for 3 s at 0°C, 30 s, 300 s and 3000 s at 20°C before being quenched with ice cold acidic quench buffer, resulting in a final concentration of 0.6M guanidine HCl and 0.9% formic acid post quench. All conditions and time points were created and run in independent triplicate. Samples were flash frozen immediately after quenching and stored at -80°C until injected onto the ultra-performance liquid chromatography (UPLC) system for proteolytic cleavage, peptide separation and injection onto a QTOF for mass analysis, described below.
Protein samples were rapidly thawed and injected onto an integrated fluidics system containing a HDx-3 PAL liquid handling robot and climate-controlled (2°C) chromatography system (Trajan), a Waters Acquity UPLC I-Class Series System, as well as an Impact HD QTOF Mass spectrometer (Bruker). The full details of the automated LC system were previously described. The samples were run over an immobilised pepsin column (Affipro; Enzymate Protein Pepsin Column, 2.1 mm X 20 mm) at 200 µl/min for 3 minutes at 2°C. […]
Peptides were identified from the non-deuterated samples of p110α using data-dependent acquisition following tandem MS/MS experiments (0.5 s precursor scan from 150 to 2000 m/z; twelve 0.25 s fragment scans from 150 to 2000 m/z). MS/MS datasets were analysed using FragPipe v18.0 and peptide identification was carried out by using a false discovery-based approach using a database of purified proteins and known contaminants [[35–37]]. […]
HD-Examiner Software (Trajan) was used to automatically calculate the level of deuterium incorporation into each peptide. […] Deuteration levels were calculated using the centroid of the experimental isotope clusters. […]

difference in deuterium exchange (increase in exchange) (amino acids 24–35 in the nPH domain): 4.5–10%
difference in deuterium exchange (protection) (amino acids 330–347, 367–386, 863–882 and 957–973): 4.5–10%
difference in deuterium exchange (protection) (amino acids 481–495): > 10%
Compound: Nc1ncnc2c1ncn2[C@@H]1O[C@H](COP(=O)(O)OP(=O)(O)O)[C@@H](O)[C@H]1O [ADP]
